These results are taken from the Deep4Chem optical property database.

Where “and” joins values, the source holds several entries; their conditions need not be identical. Equal values may be shown once.

The nature of this data set: solvent given as SMILES.

With `O=[N+]([O-])c1ccc(-c2nc3c(c4c2-c2ccccc2CC4)-c2ccccc2CC3)cc1`, the absorption maximum stood at 350 nm (in C1CCOC1); 345 nm (in CC#N); 339 nm (in CCCCCC); 339 nm (in CCOC(C)=O); 334 nm (in CO); 352 nm (in CS(C)=O). This molecule also came in with an absorption maximum (in Cc1ccccc1) of 351 nm and an absorption maximum (in ClCCl) of 353 nm.

For `CCN(CC)c1ccc(/C=N/c2ccccc2/N=C/c2ccc(N(CC)CC)cc2O)c(O)c1`, the absorption maximum turned out to be 442 nm (in CC#N), 490 nm (in CN(C)C=O) and 442 nm (in ClCCl).

`CCC(C)(C)c1ccc2c(c1)C(CCOC)(CCOC)c1cc(-c3ccc(-c4ccc5c(c4)C(CCOC)(CCOC)c4cc(C(C)(C)CC)ccc4-5)cc3)ccc1-2` registered an absorption maximum (in C1CCCCC1) of 332 nm.

`COc1ccc(/C=C/C2=[O+][B-](F)(F)OC(/C=C/c3ccc(OC)cc3)=C2c2ccccc2)cc1` had an absorption maximum (in CC#N) of 500 nm; an absorption maximum (in CC(C)=O) of 500 nm; an absorption maximum (in CCOC(C)=O) of 496 nm; an absorption maximum (in CCOCC) of 491 nm; an absorption maximum (in ClC(Cl)(Cl)Cl) of 493 nm; an absorption maximum (in ClCCl) of 505 nm.

On to `Oc1c(-c2ccco2)cccc1-c1nc2ccccc2s1`, for which the absorption maximum was found to be 360 nm (in ClCCl) and 360 nm (in O).

For `[NH3+]C(Cc1ccc(O)cc1)C(=O)[O-]` (stereo not given), the absorption maximum (in O) came to 274 nm.

For the setting “in CC#N”, `N#C/C(=C\c1ccc(C#N)cc1)c1nc(-c2ccc(Cl)cc2)c(-c2ccccc2)s1` displayed an absorption maximum of 377 nm.

Molecule `CCCCC(CC)COc1ccc2nc(-c3ccc(-c4ccccc4)s3)sc2c1` (stereo not given) gave an absorption maximum (in ClCCl) of 368 nm.

As to `F[B-]1(F)n2cccc2C(c2ccccc2)=C2C=CC(N3CCOCC3)=[N+]21`, the absorption maximum is 473 nm (in CC#N); 514 nm (in CCCCCC); 480 nm (in CCOC(C)=O); 479 nm (in CO); 486 nm (in ClCCl).

As to `N#Cc1nn(-c2ccc(Cl)cc2)nc1N1CCCC1`, the absorption maximum (in CC#N) is 346 nm.

For the setting “in Cc1ccccc1”, `CCCC1=Cc2nc1ccc1[nH]c(cc1CCO)c1nc(ccc3[nH]c2cc3CCC)C(CCO)=C1` displayed an absorption maximum of 638 nm.

Molecule `O=C(O)CCCCCn1c2ccc(Br)cc2c(=O)c2cc3c(cc21)c(=O)c1cc(Br)ccc1n3CCCCCC(=O)O` registered an absorption maximum (in CO) of 533 nm.

Molecule `CC(C)(C)Nc1cc(F)c(C(=O)c2cc(F)c(NC(C)(C)C)cc2F)cc1F` showed an absorption maximum (in CCO) of 348 nm.

In the case of `Cc1nc2c(ccc3c2sc(/C=C/C=C/c2ccc(N(C)C)cc2)[n+]3C)s1`, the absorption maximum is, setting by setting: (in CO) 574 nm; (in ClC(Cl)Cl) 617 nm.

With `CCCCN1C(=O)C(=C/C=C/C=C2N(CCCC)c3ccccc3N2CCCC)C(=O)N(CCCC)C1=S`, the absorption maximum by setting is: (in CCCCCC) 574 nm; (in CCO) 452 nm; (in CN(C)C=O) 497 nm; (in Cc1ccccc1) 575 nm; (in ClC(Cl)Cl) 559 nm; (in ClCCl) 550 nm.

With `CCCN1/C(=C/C=C(/C=C/C2=[N+](CCC)c3ccccc3C2(C)C)c2cc[n+](C)cc2)C(C)(C)c2ccccc21`, the absorption maximum by setting is: (in CO) 627 nm; (in CS(C)=O) 637 nm; (in O) 626 nm.

As for `CN(C)c1ccc(/C=C/c2cc[n+](CCC[n+]3ccc(/C=C/c4ccc(N(C)C)cc4)cc3)cc2)cc1`, the absorption maximum reads like this: (in CC1COC(=O)O1) 485 nm; (in CC#N) 488 nm; (in CC(C)=O) 484 nm; (in CC(C)O) 499 nm; (in CCO) 500 nm; (in CN(C)C=O) 485 nm. Also, the absorption maximum was 494 nm (in CO); 485 nm (in CS(C)=O); 501 nm (in ClC(Cl)Cl); 466 nm (in O); 498 nm (in c1ccncc1).

In the case of `C[Si](C)(C)c1cccc2ccccc12`, the absorption maximum (in C1CCCCC1) amounted to 294 nm.

For `c1ccc2ccccc2c1`, the absorption maximum (in C1CCCCC1) is 291.46 nm and 286 nm.

`C[Si]1(C)c2cc(-c3ccccc3)ccc2C=Cc2ccc(-c3ccccc3)cc21` registered an absorption maximum (in ClCCl) of 379 nm.

Where the note is “in ClCCl”, `COC(=O)c1c(-c2cc3ccccc3oc2=O)nn(-c2cccc(C)c2)c1C(=O)OC` displayed an absorption maximum of 324 nm.

`COc1ccc(-c2cnc(/C=C/c3ccc(C#N)cc3)o2)cc1OC` displayed an absorption maximum (in ClCCl) of 370 nm.

`CC1(C)c2ccccc2N(c2cc[n+]3c(c2)-c2ccccc2O[B-]3(F)F)c2ccccc21` came in with an absorption maximum (in Cc1ccccc1) of 358 nm.

The molecule `O=C1/C(=C2\Sc3ccccc3C2=O)Sc2ccccc21` registered an absorption maximum (in C1COCCO1) of 536 nm; an absorption maximum (in CN(C)C=O) of 543 nm; an absorption maximum (in CO) of 538 nm; an absorption maximum (in CS(C)=O) of 545 nm; an absorption maximum (in c1ccccc1) of 544 nm.

Turning to `COc1ccc(-c2c3nc(cc4ccc([nH]4)c(-c4ccc(OC)c(OCCCC(=O)O)c4)c4nc(cc5ccc2[nH]5)CC4)CC3)cc1OCCCC(=O)O`, where the note is “in CS(C)=O”, the absorption maximum is 736 nm.

Regarding `CCN(CC)c1ccc(/C=C/c2cc(/C=C/c3ccc(N(CC)CC)cc3)nc(N)n2)cc1`, the absorption maximum reads like this: (in Cc1ccccc1) 418 nm; (in ClC(Cl)Cl) 433 nm.

Regarding `C(S/C=C/c1ccc(-c2ccc(/C=C/SC=C3CCCC3)cc2)cc1)=C1CCCC1`, the absorption maximum (in ClCCl) was found to be 352 nm.

As for `CCCCCCCCCc1c2ccccc2cc2c1oc1c3c(c4ccccc4c12)-c1c(c2oc4cc5ccccc5cc4c2c2ccccc12)OCO3`, under “in C1CCOC1”, the absorption maximum was found to be 397 nm.

On to `c1ccc2c(-n3c4ccccc4c4ccccc43)cccc2c1`, for which the absorption maximum runs as follows: (in C1CCCCC1) 321 nm; (in C1CCOC1) 323 nm; (in CC#N) 322 nm; (in CCO) 325 nm; (in CCOC(C)=O) 323 nm; (in CCOCC) 322 nm. For the same molecule, the absorption maximum is, setting by setting: (in CO) 323 nm; (in Cc1ccccc1) 321 nm; (in ClC(Cl)Cl) 324 nm.

Take `CCOC(=O)CN(CC(=O)OCC)c1ccc(-c2cc(-c3ccccn3)nc(-c3ccccn3)c2)cc1`: the absorption maximum is given as 328 nm (in CC#N); 328 nm (in CCOC(C)=O); 332 nm (in CN(C)C=O); 336 nm (in CS(C)=O); 328 nm (in c1ccccc1).

Molecule `O=Cc1nc2ccc(C#Cc3ccc(N(c4ccccc4)c4ccccc4)cc3)cc2s1` had an absorption maximum (in Cc1ccccc1) of 412 nm.

`CCOC(=O)c1c(-c2cc3ccccc3oc2=O)nn(-c2ccc(C)c(C)c2)c1C(=O)OCC` showed an absorption maximum (in ClCCl) of 322 nm.

Consider `CC/[NH+]=c1\cc2oc3cc(NCCO)c4ccccc4c3nc-2cc1C`, for which the absorption maximum by setting is: (in CCO) 590 nm; (in O) 590 nm.

As for `N#CC(C#N)=C(c1ccc(N(c2ccccc2)c2ccccc2)cc1)c1ccc(N(c2ccccc2)c2ccccc2)cc1`, the absorption maximum reads like this: (in C1CCCCC1) 367.21 nm; (in CC(C)=O) 370.45 nm; (in CN(C)C=O) 374.03 nm; (in Cc1ccccc1) 374.03 nm; (in ClC(Cl)Cl) 381.49 nm.

On to `c1cc2cccc3c4cccc5cccc(c(c1)c23)c54`, for which the absorption maximum is given as 435 nm (in C1CCCCC1), 438.5 nm (in ClC(Cl)Cl) and 438 nm (in ClCCl).

In the case of `Cn1c(=O)cc(C(=O)c2ccccc2)c2sc(-c3ccc(N(c4ccccc4)c4ccccc4)cc3)cc21`, the absorption maximum by setting is: (in CC#N) 430 nm; (in ClCCl) 438 nm.

For the molecule `CCC1(CC)c2ccccc2-c2c1c1c(c3c2C(CC)(CC)c2cc(N(c4ccccc4)c4ccccc4)ccc2-3)C(CC)(CC)c2ccccc2-1`, the absorption maximum by setting is: (in C1CCOC1) 356 nm; (in CC#N) 353 nm; (in CC(C)=O) 354 nm; (in CCCCCC) 356 nm; (in Cc1ccccc1) 360 nm.

Take `CC1(C)C2=C3C=C4C5=[N+](CCC4OC3CCN2c2ccc(CC(=O)NCCCCCCO)cc21)c1ccc(S(=O)(=O)[O-])cc1C5(C)C` (stereo not given): under “in O”, the absorption maximum is 558 nm.

`F[B-]1(F)n2c(c3ccccc3c2-c2ccccc2)C=C2c3ccccc3C(c3ccccc3)=[N+]21`: the absorption maximum is on record as 640 nm (in C1CCOC1) and 634 nm (in ClCCl).

Regarding `COc1ccc(/C=C/c2ncc(-c3ccccc3)o2)cc1OC`, the absorption maximum (in ClCCl) amounted to 355 nm.

The molecule `CN(C)c1ccc(C#Cc2ncnc3ccccc23)cc1` had an absorption maximum (in ClCCl) of 384 nm.

`CCn1c2ccccc2c2cc(C#Cc3cc(C#Cc4ccc5c(c4)c4ccccc4n5CC)ncn3)ccc21` had an absorption maximum (in C1CCOC1) of 382 nm; an absorption maximum (in CCOC(C)=O) of 379 nm; an absorption maximum (in CN(C)C=O) of 386 nm; an absorption maximum (in Cc1ccccc1) of 383 nm; an absorption maximum (in ClCCl) of 386 nm.

For the molecule `CC(C)(C)c1ccc2c(c1)c1cc(C(C)(C)C)ccc1n2-c1ccccc1-c1nc(-c2ccccc2P(=O)(c2ccccc2)c2ccccc2)nc(-c2ccccc2P(=O)(c2ccccc2)c2ccccc2)n1`, the absorption maximum reads like this: (in C1CCOC1) 343.56 nm; (in CC#N) 347.54 nm; (in CC(C)=O) 343.88 nm; (in CN(C)C=O) 345.95 nm; (in Cc1ccccc1) 320.35 nm; (in ClC(Cl)Cl) 342.93 nm. Further, for the setting “in ClCCl”, the absorption maximum is 341.49 nm.

Under “in CCCCCC”, `C/C=C/c1ccc(OC)cc1` gave an absorption maximum of 305 nm.

On to `CNc1cc2nc3cc(Br)c(Br)cc3nc2cc1NC`, for which the absorption maximum (in CCO) worked out at 443 nm.

In the case of `Cc1ccc(/C=C/c2ccccc2-[n+]2noc([O-])c2C)cc1`, the absorption maximum runs as follows: (in C1CCCCC1) 314 nm; (in CC#N) 310 nm; (in CCO) 312 nm.
